In ChEMBL document CHEMBL1133222 (2000) one finds Binding affinity and ED50 data, which are given here for 28 compounds.

Each structure is given as a SMILES string.

Assay [1] has as its target T1, Endothelin-1 receptor (Rattus norvegicus) (UniProt P26684).
T1 sequence (whole entry): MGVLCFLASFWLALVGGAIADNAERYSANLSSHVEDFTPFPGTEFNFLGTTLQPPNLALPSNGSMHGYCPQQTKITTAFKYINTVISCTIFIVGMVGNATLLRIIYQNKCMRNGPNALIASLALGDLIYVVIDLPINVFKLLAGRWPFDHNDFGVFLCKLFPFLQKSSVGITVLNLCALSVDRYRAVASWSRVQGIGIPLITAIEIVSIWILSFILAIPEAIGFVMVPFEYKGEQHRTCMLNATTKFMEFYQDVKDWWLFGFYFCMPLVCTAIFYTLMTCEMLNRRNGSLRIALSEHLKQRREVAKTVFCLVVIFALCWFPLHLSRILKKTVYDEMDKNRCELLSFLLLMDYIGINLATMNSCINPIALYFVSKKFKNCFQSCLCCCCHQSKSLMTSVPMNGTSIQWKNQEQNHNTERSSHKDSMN
Kind of assay: Inhibition of (125 I)-endothelin 1 binding to endothelin A receptor in rat ventricle.

The target of assay [2] is T2, Endothelin receptor type B (Rattus norvegicus) (UniProt P21451).
T2 sequence (whole entry): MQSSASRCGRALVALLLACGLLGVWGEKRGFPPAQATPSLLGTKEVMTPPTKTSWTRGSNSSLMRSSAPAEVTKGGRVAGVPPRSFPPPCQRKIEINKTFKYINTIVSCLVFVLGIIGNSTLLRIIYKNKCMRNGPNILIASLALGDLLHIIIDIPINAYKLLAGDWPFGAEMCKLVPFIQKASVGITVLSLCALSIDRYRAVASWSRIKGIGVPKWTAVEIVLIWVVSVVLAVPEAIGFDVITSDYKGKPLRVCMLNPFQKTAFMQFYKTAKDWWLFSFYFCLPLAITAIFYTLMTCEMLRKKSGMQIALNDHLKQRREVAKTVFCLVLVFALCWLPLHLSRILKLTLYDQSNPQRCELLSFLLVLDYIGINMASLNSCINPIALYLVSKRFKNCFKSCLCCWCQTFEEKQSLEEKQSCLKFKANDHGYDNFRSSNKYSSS
Conditions: Cerebellum.
Description: Inhibition of (125 I)-endothelin 1 binding to endothelin B receptor in rat cerebellum

The subject of a further assay is Mus musculus. Briefly: Effective dose for ET-1 induced death in mice after peroral administration. It counts as functional. Conditions: po.
Another assay deals with Rattus norvegicus. Briefly: Effective dose in rat after intravenous administration. It counts as functional.

Consider `O=C(O)c1c(Cc2cccc(Cl)c2Cl)c(=O)c2ccccc2n1Cc1cc2c(cc1Cl)OCO2`, for which the Binding affinity in assay [1] came out at 10.9 nM; in assay [2], 570 nM.

As to `CCCCc1cn(Cc2ccc(-c3ccccc3C(=O)O)cc2)c2ccc(Cn3ccc4ccccc43)cc2c1=O`, the Binding affinity was 7600 nM in assay [1] and 110000 nM in assay [2].

`O=C(O)C[C@H]1CC[C@H](Cc2c(C(=O)O)n(Cc3cc4c(cc3Cl)OCO4)c3ccccc3c2=O)CC1`: the results for the Binding affinity in assay [1] and in assay [2] were 3.4 nM and 6630 nM, respectively.

The term ED50 denotes the dose that gives a 50% effect, or the effect in half of the subjects. Low values mean greater potency, high ones weaker potency. In the case of `CCc1cc2c(cc1Cn1c(C(=O)[O-])c(Cc3cccc(C(=O)[O-])c3)c(=O)c3ccccc31)OCO2.[K+].[K+]`, the ED50 with Mus musculus was found to be 10 mg/kg; in the assay on Rattus norvegicus it was 0.1 mg/kg. The Binding affinity in assay [1] came out at 0.69 nM; in assay [2] it was 571 nM.

On to `O=C(O)c1c(Cc2ccoc2)c(=O)c2ccccc2n1Cc1cc2c(cc1Cl)OCO2`, for which the Binding affinity in assay [1] came to 29 nM; in assay [2], 1900 nM.

As to `COc1cc(Cc2c(C(=O)O)n(Cc3cc4c(cc3Cl)OCO4)c3ccccc3c2=O)cc(OC)c1OC`, the Binding affinity in assay [1] is 1.9 nM; in assay [2] it was 789 nM.

Take `COc1ccc(Cc2c(C(=O)O)n(Cc3cc4c(cc3Br)OCO4)c3ccccc3c2=O)cc1`: the Binding affinity in assay [1] amounted to 7.8 nM; in assay [2], 244 nM.

For the compound `O=C(O)c1c(Cc2ccco2)c(=O)c2ccccc2n1Cc1cc2c(cc1Cl)OCO2`, the Binding affinity worked out at 5.7 nM in assay [1] and 1890 nM in assay [2].

As to `CCOC(=O)C[C@H]1CC[C@H](Cc2c(C(=O)O)n(Cc3cc4c(cc3Cl)OCO4)c3ccccc3c2=O)CC1`, the values for the Binding affinity in assay [1] and in assay [2] were 4.7 nM and 5000 nM, respectively.

Consider `COc1ccc(Cc2c(C(=O)O)n(Cc3cc4c(cc3Cl)OCO4)c3ccccc3c2=O)cc1`, for which the Binding affinity in assay [1] amounted to 1.6 nM; in assay [2], 216 nM.

Regarding `COc1ccc(Cn2c(C(=O)O)c(Cc3ccc4c(c3)OCO4)c(=O)c3ccccc32)cc1`, the values for the Binding affinity in assay [1] and in assay [2] were 255 nM and 16000 nM, respectively.

On to `CCc1cc2c(cc1Cn1c(C(=O)O)c(Cc3ccc(OC)cc3)c(=O)c3ccccc31)OCO2`, for which the Binding affinity in assay [1] came out at 1 nM; in assay [2] it was 69 nM.

With `O=C(O)c1c(Cc2ccccc2)c(=O)c2ccccc2n1Cc1cc2c(cc1Cl)OCO2`, the values for the Binding affinity in assay [1] and in assay [2] were 4.1 nM and 157 nM, respectively.

Take `O=C(O)c1ccc(Cc2c(C(=O)O)n(Cc3cc4c(cc3Cl)OCO4)c3ccccc3c2=O)cc1`: the Binding affinity in assay [1] was 4.6 nM; in assay [2], 17100 nM.

Take `C=Cc1ccc(Cc2c(C(=O)O)n(Cc3cc4c(cc3Cl)OCO4)c3ccccc3c2=O)cc1`: the Binding affinity in assay [1] came to 5.6 nM; in assay [2], 190 nM.

In turn, `COc1ccc(Cc2c(C(=O)O)n(Cc3cc(Br)c4c(c3)OCO4)c3ccccc3c2=O)cc1` had a Binding affinity in assay [1] of 18.9 nM.

In the case of `CCCCc1cn(Cc2ccc(-c3ccccc3-n3cnnn3)cc2)c2ccc(CSc3ccccn3)cc2c1=O`, the values for the Binding affinity in assay [1] and in assay [2] were 11000 nM and 12000 nM, respectively.

`O=C(O)CCCCCc1c(C(=O)O)n(Cc2cc3c(cc2Cl)OCO3)c2ccccc2c1=O`: the Binding affinity in assay [1] was 93 nM; in assay [2], 9500 nM.

In the case of `COc1ccc(Cc2c(C(=O)O)n(Cc3cc(OC)c4c(c3)OCO4)c3ccccc3c2=O)cc1`, the Binding affinity was 9.5 nM in assay [1] and 244 nM in assay [2].

Regarding `COc1ccc(Cc2c(C(=O)O)n(Cc3ccc4c(c3)OCO4)c3ccccc3c2=O)cc1`, the figures for the Binding affinity in assay [1] and in assay [2] were 10.7 nM and 606 nM, respectively.

In the case of `O=C(O)c1cc(=O)c2ccccc2n1Cc1cc2c(cc1Cl)OCO2`, the results for the Binding affinity in assay [1] and in assay [2] were 8700 nM and 29000 nM, respectively.

Take `O=C(O)c1c(CC2CCCCC2)c(=O)c2ccccc2n1Cc1cc2c(cc1Cl)OCO2`: the results for the Binding affinity in assay [1] and in assay [2] were 1.1 nM and 100 nM, respectively.

For `O=C(O)c1cccc(Cc2c(C(=O)O)n(Cc3cc4c(cc3Cl)OCO4)c3ccccc3c2=O)c1`, the figures for the Binding affinity in assay [1] and in assay [2] were 3 nM and 500 nM, respectively.

Consider `COc1ccc(Cc2c(C(=O)O)n(Cc3cc4c(cc3Cl)OCO4)c3ccccc3c2=O)c(OCC(=O)O)c1`, for which the Binding affinity came to 54.3 nM in assay [1] and 549 nM in assay [2].

`O=C(O)c1c(Cc2ccc(Br)cc2)c(=O)c2ccccc2n1Cc1cc2c(cc1Cl)OCO2`: the Binding affinity in assay [1] turned out to be 5.7 nM; in assay [2], 166 nM.

Consider `COC(=O)c1cccc(Cc2c(C(=O)O)n(Cc3cc4c(cc3Cl)OCO4)c3ccccc3c2=O)c1`, for which the Binding affinity in assay [1] worked out at 8.2 nM; in assay [2] it was 747 nM.

In the case of `C=Cc1cc2c(cc1Cn1c(C(=O)O)c(Cc3ccc(OC)cc3)c(=O)c3ccccc31)OCO2`, the Binding affinity in assay [1] is 1.8 nM; in assay [2], 70 nM.

For the compound `O=C(O)c1c(Cc2cccnc2)c(=O)c2ccccc2n1Cc1cc2c(cc1Cl)OCO2`, the figures for the Binding affinity in assay [1] and in assay [2] were 20.4 nM and 1600 nM, respectively.
